# According to patent US20230127944A1, “BROAD-SPECTRUM CARBAPENEMS” (priority 2019, published 2023):
# Legend:
# Type in all cases: cell-based
# [1] = system: S. aureus ATCC 33591 (methicillin-resistant); experiment: broth microdilution MIC assay, S. aureus 33591; conditions: Staphylococcus aureus, ATCC33591; S. aureus 33591, methicillin-resistant; read-out: MIC, S. aureus 33591
# Description: (§1) To determine the ability of test compounds to inhibit the growth of bacterial strains, classic cell-based broth microdilution MIC assays were employed. MIC assays are performed according to CLSI methods except where otherwise noted (CLSI, 2011 and CLSI, 2009). The reference strains S. aureus ATCC 29213 (methicillin sensitive), S. aureus ATCC 33591 (methicillin-resistant), E. coli ATCC 25922 (wild-type/QC strain), P. aeruginosa ATCC 27853 (wild-type/QC strain), and the clinical isolate P. aeruginosa PA 8 were used to determine the ability of the exemplary carbapenem compounds to inhibit bacterial growth. An expanded panel of methicillin resistance S. aureus (MRSA) and Pseudomonas was also used to determine the ability of exemplary carbapenem compounds to inhibit bacterial growth across a broader representation of those species. To determine activity in MRSA and in addition to S. aureus ATCC 33591, S. aureus USA 300 and USA 600, some of the most common clones found to cause human infection, were also used. To further gauge the impact on the carbapenem compounds due to various resistance mechanisms in Pseudomonas, the following strains were included: P. aeruginosa 35151 (hyper-permeable strain), P. aeruginosa ΔmexAB-OprM (an efflux pump knockout), and P. aeruginosa Paβ-173 (a clinical isolate of reduced carbapenem susceptibility). Briefly, cryo-preserved bacterial cultures of clinical strains are streaked for isolation on appropriate agar medium, in this case Mueller Hinton II agar. Following incubation to allow formation of colonies, these plates are sealed with parafilm and stored refrigerated for up to two weeks. For preparation of assay inocula and to ensure low variability, at least 5 colonies are picked from the agar plates with an inoculating loop and aseptically transferred to a culture tube containing 3 mL of Mueller-Hinton Broth (supplemented with divalent cations to required levels based on Manufacturers' specification). The broth culture is grown for 3-5 hours at 37° C. with shaking at 200 rpm. Meanwhile, 2-fold serial dilutions of test compounds are conducted in a 96 well plate with a final volume of 75 μL per well at 2-fold the final desired concentration. After the dilution plates are set up the growing cultures are then diluted in a cuvette containing MH II broth and the optical density is measured at 600 nm. Inocula are diluted such that 75 μL of this culture in Mueller-Hinton Broth results in a starting bacterial concentration of 5×10^5 CFU/mL when added to the dilution plates. The plates are incubated 16-20 hours at 37° C. The MIC is read visually as the lowest concentration well with no bacterial growth.
# S. aureus USA 300 = experiment: broth microdilution MIC assay, S. aureus USA300; conditions: Staphylococcus aureus; S. aureus USA300 (MRSA); read-out: MIC, S. aureus USA300
# Description: as §1
# S. aureus USA 600 = experiment: broth microdilution MIC assay, S. aureus USA600; conditions: Staphylococcus aureus; S. aureus USA600 (MRSA); read-out: MIC, S. aureus USA600
# Description: as §1
# [2] = system: E. coli ATCC 25922 (wild-type/QC strain); experiment: broth microdilution MIC assay, E. coli 25922; conditions: Escherichia coli, ATCC25922; read-out: MIC, E. coli 25922
# Description: as §1
# [3] = system: P. aeruginosa ATCC 27853 (wild-type/QC strain); experiment: broth microdilution MIC assay, P. aeruginosa 27853; conditions: Pseudomonas aeruginosa, ATCC27853; read-out: MIC, P. aeruginosa 27853
# Description: as §1
# [4] = system: P. aeruginosa 35151 (hyper-permeable strain); experiment: broth microdilution MIC assay, P. aeruginosa 35151; conditions: Pseudomonas aeruginosa, read-out: MIC, P. aeruginosa 35151
# Description: as §1
# [5] = system: P. aeruginosa ΔmexAB-OprM (an efflux pump knockout); experiment: broth microdilution MIC assay, P. aeruginosa ΔmexAB-OprM; conditions: Pseudomonas aeruginosa, read-out: MIC, P. aeruginosa ΔmexAB-OprM
# Description: as §1
# P. aeruginosa Paeβ-17 = experiment: broth microdilution MIC assay, P. aeruginosa Paeβ-17; conditions: Pseudomonas aeruginosa, read-out: MIC, P. aeruginosa Paeβ-17
# Description: as §1
SMILES,MIC [1],MIC (S. aureus USA 300),MIC (S. aureus USA 600),MIC [2],MIC [3],MIC [4],MIC [5],MIC (P. aeruginosa Paeβ-17)
"C[C@@H](O)[C@H]1C(=O)N2C(C(=O)O)=C(S[C@@H]3CCN([C@H]4CC[C@@H](CNC(=N)N)CC4)C3)[C@H](C)[C@H]12 [Example 63, (4R,5S,6S)-3-(((R)-1-((1S,4S)-4-(guanidinomethyl)cyclohexyl)pyrrolidin-3-yl)thio)-6-((R)-1-hydroxyethyl)-4-methyl-7-oxo-1-azabicyclo[3.2.0]hept-2-ene-2-carboxylic acid]",1 to 4 µg/mL,1 to 4 µg/mL,1 to 4 µg/mL,< 1 µg/mL,1 to 4 µg/mL,< 1 µg/mL,1 to 4 µg/mL,8 to 32 µg/mL
"C[C@@H](O)[C@H]1C(=O)N2C(C(=O)O)=C(S[C@H]3C[C@@H](N[C@H]4CC[C@H](NC(=N)N)CC4)C3)[C@H](C)[C@H]12 [Example 52, (4R,5S,6S)-3-(((1S,3S)-3-(((1R,4S)-4-guanidinocyclohexyl)amino)cyclobutyl)thio)-6-((R)-1-hydroxyethyl)-4-methyl-7-oxo-1-azabicyclo[3.2.0]hept-2-ene-2-carboxylic acid]",1 to 4 µg/mL,1 to 4 µg/mL,< 1 µg/mL,< 1 µg/mL,1 to 4 µg/mL,< 1 µg/mL,1 to 4 µg/mL,8 to 32 µg/mL
"C[C@@H](O)[C@H]1C(=O)N2C(C(=O)O)=C(SC3CN(CC4CCN(C(=N)N)CC4)C3)[C@H](C)[C@H]12 [Example 26, (4R,5S,6S)-3-((1-((1-carbamimidoylpiperidin-4-yl)methyl)azetidin-3-yl)thio)-6-((R)-1-hydroxyethyl)-4-methyl-7-oxo-1-azabicyclo[3.2.0]hept-2-ene-2-carboxylic acid]",1 to 4 µg/mL,1 to 4 µg/mL,1 to 4 µg/mL,< 1 µg/mL,1 to 4 µg/mL,< 1 µg/mL,< 1 µg/mL,8 to 32 µg/mL
"C[C@@H](O)[C@H]1C(=O)N2C(C(=O)O)=C(SC3CN([C@@H]4CCC[C@H](N)C4)C3)[C@H](C)[C@H]12 [Example 14, (4R,5S,6S)-3-((1-((1R,3S)-3-aminocyclohexyl)azetidin-3-yl)thio)-6-((R)-1-hydroxyethyl)-4-methyl-7-oxo-1-azabicyclo[3.2.0]hept-2-ene-2-carboxylic acid]",1 to 4 µg/mL,1 to 4 µg/mL,1 to 4 µg/mL,< 1 µg/mL,1 to 4 µg/mL,< 1 µg/mL,1 to 4 µg/mL,8 to 32 µg/mL
"C[C@@H](O)[C@H]1C(=O)N2C(C(=O)O)=C(SC3CN([C@H]4C[C@H](N)C4)C3)[C@H](C)[C@H]12 [Example 4, (4R,5S,6S)-3-((1-((1r,3R)-3-aminocyclobutyl)azetidin-3-yl)thio)-6-((R)-1-hydroxyethyl)-4-methyl-7-oxo-1-azabicyclo[3.2.0]hept-2-ene-2-carboxylic acid]",8 to 32 µg/mL,1 to 4 µg/mL,1 to 4 µg/mL,< 1 µg/mL,8 to 32 µg/mL,< 1 µg/mL,1 to 4 µg/mL,> 32 µg/mL
"C[C@@H](O)[C@H]1C(=O)N2C(C(=O)O)=C(SC3CN([C@H]4CC[C@H](CNC(=N)N)CC4)C3)[C@H](C)[C@H]12 [Example 66, (4R,5S,6S)-3-((1-((1R,4R)-4-(guanidinomethyl)cyclohexyl)azetidin-3-yl)thio)-6-((R)-1-hydroxyethyl)-4-methyl-7-oxo-1-azabicyclo[3.2.0]hept-2-ene-2-carboxylic acid]",1 to 4 µg/mL,1 to 4 µg/mL,1 to 4 µg/mL,< 1 µg/mL,1 to 4 µg/mL,< 1 µg/mL,1 to 4 µg/mL,8 to 32 µg/mL
"C[C@@H](O)[C@H]1C(=O)N2C(C(=O)O)=C(SC3CN([C@H]4CC[C@H](NC(=N)N)C4)C3)[C@H](C)[C@H]12 [Example 11, (4R,5S,6S)-3-((1-((1S,3S)-3-guanidinocyclopentyl)azetidin-3-yl)thio)-6-((R)-1-hydroxyethyl)-4-methyl-7-oxo-1-azabicyclo[3.2.0]hept-2-ene-2-carboxylic acid]",1 to 4 µg/mL,1 to 4 µg/mL,< 1 µg/mL,< 1 µg/mL,1 to 4 µg/mL,< 1 µg/mL,1 to 4 µg/mL,8 to 32 µg/mL
"C[C@@H](O)[C@H]1C(=O)N2C(C(=O)O)=C(S[C@@H]3CCN([C@H]4CC[C@@H](N)C4)C3)[C@H](C)[C@H]12 [Example 36, (4R,5S,6S)-3-(((R)-1-((1S,3R)-3-aminocyclopentyl)pyrrolidin-3-yl)thio)-6-((R)-1-hydroxyethyl)-4-methyl-7-oxo-1-azabicyclo[3.2.0]hept-2-ene-2-carboxylic acid]",1 to 4 µg/mL,1 to 4 µg/mL,1 to 4 µg/mL,< 1 µg/mL,1 to 4 µg/mL,< 1 µg/mL,1 to 4 µg/mL,8 to 32 µg/mL
"C[C@@H](O)[C@H]1C(=O)N2C(C(=O)O)=C(S[C@@H]3CCN(C[C@H]4CC[C@@H](NC(=N)N)CC4)C3)[C@H](C)[C@H]12 [Example 33, (4R,5S,6S)-3-(((R)-1-(((1S,4S)-4-guanidinocyclohexyl)methyl)pyrrolidin-3-yl)thio)-6-((R)-1-hydroxyethyl)-4-methyl-7-oxo-1-azabicyclo[3.2.0]hept-2-ene-2-carboxylic acid]",1 to 4 µg/mL,< 1 µg/mL,1 to 4 µg/mL,< 1 µg/mL,1 to 4 µg/mL,< 1 µg/mL,1 to 4 µg/mL,8 to 32 µg/mL
"C[C@@H](O)[C@H]1C(=O)N2C(C(=O)O)=C(SC3CN([C@H]4CC[C@@H](CNC(=N)N)CC4)C3)[C@H](C)[C@H]12 [Example 65, (4R,5S,6S)-3-((1-((1S,4S)-4-(guanidinomethyl)cyclohexyl)azetidin-3-yl)thio)-6-((R)-1-hydroxyethyl)-4-methyl-7-oxo-1-azabicyclo[3.2.0]hept-2-ene-2-carboxylic acid]",1 to 4 µg/mL,1 to 4 µg/mL,1 to 4 µg/mL,< 1 µg/mL,1 to 4 µg/mL,< 1 µg/mL,1 to 4 µg/mL,8 to 32 µg/mL
"C[C@@H](O)[C@H]1C(=O)N2C(C(=O)O)=C(S[C@H]3C[C@H](N[C@H]4CC[C@H](NC(=N)N)C4)C3)[C@H](C)[C@H]12 [Example 73, (4R,5S,6S)-3-(((1S,3R)-3-(((1S,3S)-3-guanidinocyclopentyl)amino)cyclobutyl)thio)-6-((R)-1-hydroxyethyl)-4-methyl-7-oxo-1-azabicyclo[3.2.0]hept-2-ene-2-carboxylic acid]",8 to 32 µg/mL,1 to 4 µg/mL,1 to 4 µg/mL,< 1 µg/mL,1 to 4 µg/mL,< 1 µg/mL,8 to 32 µg/mL,1 to 4 µg/mL
"C[C@@H](O)[C@H]1C(=O)N2C(C(=O)O)=C(SC3CN([C@@H]4CCC[C@@H](N)C4)C3)[C@H](C)[C@H]12 [Example 16, (4R,5S,6S)-3-((1-((1R,3R)-3-aminocyclohexyl)azetidin-3-yl)thio)-6-((R)-1-hydroxyethyl)-4-methyl-7-oxo-1-azabicyclo[3.2.0]hept-2-ene-2-carboxylic acid]",8 to 32 µg/mL,1 to 4 µg/mL,1 to 4 µg/mL,< 1 µg/mL,8 to 32 µg/mL,< 1 µg/mL,1 to 4 µg/mL,8 to 32 µg/mL
